Assay results published in US20230111310A1, “CARBOXYLIC ACID DERIVATIVE-SUBSTITUTED IMINO ARYL COMPOUND, PREPARATION METHOD THEREFOR, HERBICIDAL COMPOSITION AND USE THEREOF” (Qingdao Kingagroot Chemical Compound Co., Ltd., priority 2020, published 2023).

Tests used:
Assay type in all cases: in vivo
[1] = test system: Rice; test: Transplanted rice safety evaluation; settings: transplanted japonica rice, 30 g/ha, 21 days after treatment
Description: (§1) The activity level criteria for plant damage (i.e., growth control rate) are as follows:
In addition, the rice field soil that loaded into the 1/1,000,000 ha pot was leveled to keep water storage at 3-4 cm depth. The 5 leaf stage rice (japonica rice) was transplanted at 3 cm of transplanting depth the next day. The compound of the present invention was treated by the same way after 5 days of transplantation.
(§2) The fertility condition of Echinochloa crusgalli. Scirpus juncoides. Bidens tripartita L., Monochoria vaginalis, Leptochloa chinensis and Sagittaria trifolia 14 days after the treatment of the compound of the invention and the fertility condition of rice 21 days after the treatment of the compound of the invention respectively with the naked eye. Evaluate the weed control effect with the above activity standard level. Many compounds show excellent activity and selectivity.

[2] = test system: Monochoria vaginalis; test: Weed control effect evaluation in rice field; settings: rice field pot, 30 g/ha, 14 days after treatment
From the text: as §1
(§3) Rice field soil was loaded into a 1/1,000,000 ha pot. The seeds of Echinochloa crusgalli. Scirpus juncoides. Bidens tripartita L., Monochoria vaginalis, and Leptochloa chinensis were sowed and gently covered with soil, then left to stand still in greenhouse in the state of 0.5-1 cm of water storage. The tuber of Sagittaria trifolia was planted in the next day or 2 days later. It was kept at 3-4 cm of water storage thereafter. The weeds were treated by dripping the WP or SC water diluents prepared according to the common preparation method of the compounds of the present invention with pipette homogeneously to achieve specified effective amount when Echinochloa crusgalli. Scirpus juncoides, Bidens tripartita L., Monochoria vaginalis, and Leptochloa chinensis reached 0.5 leaf stage and Sagittaria trifolia reached the time point of primary leaf stage.
as §2

[3] = test system: Leptochloa chinensis; test: Weed control effect evaluation in rice field; settings: rice field pot, 30 g/ha, 14 days after treatment
From the text: as §1, §3, §2

[4] = test system: Scirpus juncoides; test: Weed control effect evaluation in rice field; settings: rice field pot, 30 g/ha, 14 days after treatment
From the text: as §1, §3, §2

[5] = test system: Digitaria sanguinalis; test: Weeding effect in post-emergence stage; settings: Dose 30 g/ha; fresh weight control rate level
How it was run: (§4)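 Post-emergence spray tower; 2-3 leaf plants (2 wk after sowing, soil pots, greenhouse). Formulation: acetone, Tween 80, methyl oleate EC 1.5 liter/ha as synergist, water. Rates 500–7.5 g/ha. Growth control rate read at 3 wk; n=3, averaged.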

[6] = test system: Alopecurus japonicus; test: Weeding effect in post-emergence stage; settings: Dose 30 g/ha; fresh weight control rate level
How it was run: as §4

[7] = test system: Setaria viridis; test: Weeding effect in post-emergence stage; settings: Dose 30 g/ha; fresh weight control rate level
How it was run: as §4

[8] = test system: Eleusine indica; test: Weeding effect in post-emergence stage; settings: Dose 30 g/ha; fresh weight control rate level
How it was run: as §4

[9] = test system: Abutilon theophrasti; test: Weeding effect in post-emergence stage; settings: Dose 30 g/ha; fresh weight control rate level
How it was run: as §4

[10] = test system: Capsella bursa-pastoris; test: Weeding effect in pre-emergence stage; settings: 30 g/ha, 4 weeks
How it was run: (§5)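 Pots were kept in the greenhouse for 4 weeks and then rated for growth control on activity-level criteria. Spraying took place immediately after sowing at application rates of 500 to 7.5 g/ha, using an acetone/tween 80 formulation diluted with water, on seeds under 0.5-2 cm of soil.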

[11] = test system: Setaria viridis; test: Weeding effect in pre-emergence stage; settings: 30 g/ha, 4 weeks
How it was run: as §5

[12] = test system: Amaranthus retroflexus; test: Weeding effect in pre-emergence stage; settings: 30 g/ha, 4 weeks
How it was run: as §5

[13] = test system: Descurainia sophia; test: Weeding effect in pre-emergence stage; settings: 30 g/ha, 4 weeks
How it was run: as §5

[14] = test system: Veronica didyma Tenore; test: Weeding effect in pre-emergence stage; settings: 30 g/ha, 4 weeks
How it was run: as §5

[15] = test system: Abutilon theophrasti; test: Weeding effect in pre-emergence stage; settings: 30 g/ha, 4 weeks
How it was run: as §5

[16] = test system: Echinochloa crusgalli; test: Weeding effect in post-emergence stage; settings: Dose 30 g/ha; fresh weight control rate level
How it was run: as §4

[17] = test system: corn; test: Pre-emergence stage, crop selectivity; settings: 30 g/ha, 4 weeks
How it was run: as §5

[18] = test system: Peanut; test: Pre-emergence stage, crop selectivity; settings: 30 g/ha, 4 weeks
How it was run: as §5

[19] = test system: cotton; test: Pre-emergence stage, crop selectivity; settings: 30 g/ha, 4 weeks
How it was run: as §5

[20] = test system: Soybeans; test: Pre-emergence stage, crop selectivity; settings: 30 g/ha, 4 weeks
How it was run: as §5

[21] = test system: Malachium aquaticum; test: Composition activity test, post-emergence foliage spray; settings: B 7.5 g a.i./ha
Description: are as follows, and the others were purchased from reagent companies. The technical materials were all dissolved in acetone and diluted with an aqueous solution containing 0.1% emulsifier Tween-80. The dilution is performed as required.
Weeds were cultivated by a pot culture method. […] Full and uniform weed seeds were selected, soaked in warm water at 25° C. for 6 hours, and germinated in a 28° C. biochemical incubator (darkness). The weed seeds that had just germinated were evenly placed on the surface of the soil and then covered with 0.5-1 cm soil according to the sizes of seeds.
The culture was carried out in a controllable sunlight greenhouse at 20 to 30° C., in natural light, and relative humidity of 57% to 72%.
3 pots with 20 weed seeds per pot were treated in one treatment with 4 replications per treatment.
The agents were used for only once in the experiment. In the stage of weeds with 1.5-2 leaves, the weeds were thinned out to maintain 10 weeds per pot and 30 weeds for each treatment, then continued to be cultured to Conyza Canadensis 10 cm in height, other weeds 3-4 leaves stage and treated.
The well-cultured weeds were evenly placed on a platform with an area of 0.5 m^2, and a solution of agents was sprayed on the stems and leaves thereof by the 3WP-2000-type walking spray tower at a dosage of 450 kg/ha and at a spray pressure of 0.3 MPa. After all the solution was sprayed, the valve was closed. After 30 seconds, the door of the spray tower was opened, and the nutritional bowl was taken out. Then the valve was opened, and the spray tube was cleaned by spraying 50 ml of water. After the treatment, the weeds were routinely cultured in a greenhouse.
A method for investigating absolute number was employed, wherein whole seedlings of survival weeds were cut off with a blade along the soil surface, and the fresh weight of the weeds was weighed with an analytical balance. For dead weeds, the fresh weight thereof was zero.
The investigation was performed after 21 days of the treatment for only once.
An optimum ratio of the two active ingredients was determined by the actual control effect, characteristics of herbicides, and balance of a corresponding formula. Wherein, in the formula, X represented the fresh weight inhibition rate of the active ingredient A in a dosage of P, and Y represented the fresh weight inhibition rate of the active ingredient B in a dosage of Q. The statistical results were shown in the table 6.

C=CCOC(=O)C(C)(C)O/N=C/c1cc(-n2c(=O)cc(C(F)(F)F)n(C)c2=O)c(F)cc1Cl [Compound 434]
plant damage level Rice [1]: 0 (Level 0: growth control rate is less than 5%)
activity level (weed control effect) Monochoria vaginalis [2]: 5 (Level 5: growth control rate is above 85%)
activity level (weed control effect) Leptochloa chinensis [3]: 5 (Level 5: growth control rate is above 85%)
activity level (weed control effect) Scirpus juncoides [4]: 5 (Level 5: growth control rate is above 85%)
Weeding effect in post-emergence stage, Digitaria sanguinalis (level) [5]: 5 (Level 5: growth control rate is above 85%)
Weeding effect in post-emergence stage, Alopecurus japonicus (level) [6]: 5 (Level 5: growth control rate is above 85%)
Weeding effect in post-emergence stage, Setaria viridis (level) [7]: 5 (Level 5: growth control rate is above 85%)
Weeding effect in post-emergence stage, Eleusine indica (level) [8]: 5 (Level 5: growth control rate is above 85%)
Weeding effect in post-emergence stage, Abutilon theophrasti (level) [9]: 5 (Level 5: growth control rate is above 85%)
activity level (growth control rate) Capsella bursa-pastoris [10]: 5 (Level 5: growth control rate is above 85%)
activity level (growth control rate) Setaria viridis [11]: 5 (Level 5: growth control rate is above 85%)
activity level (growth control rate) Amaranthus retroflexus [12]: 5 (Level 5: growth control rate is above 85%)
activity level (growth control rate) Descurainia sophia [13]: 5 (Level 5: growth control rate is above 85%)
activity level (growth control rate) Veronica didyma Tenore [14]: 5 (Level 5: growth control rate is above 85%)
activity level (growth control rate) Abutilon theophrasti [15]: 5 (Level 5: growth control rate is above 85%)
Weeding effect in post-emergence stage, Echinochloa crusgalli (level) [16]: 5 (Level 5: growth control rate is above 85%)
plant damage level Corn [17]: 0 (Level 0: growth control rate is less than 5%)
plant damage level Peanut [18]: 0 (Level 0: growth control rate is less than 5%)
plant damage level Cotton [19]: 0 (Level 0: growth control rate is less than 5%)
plant damage level Soybeans [20]: 0 (Level 0: growth control rate is less than 5%)

CCOC(=O)c1cnn(C)c1S(=O)(=O)NC(=O)Nc1nc(OC)cc(OC)n1 [pyrazosulfuron-ethyl, reference compound]
Control effect (%) of B applied alone (B) [21]: 35.7%
plant damage level Rice [1]: 1 (Level 1: growth control rate is greater than or equal to 5% and less than 20%)
activity level (weed control effect) Monochoria vaginalis [2]: 2 (Level 2: growth control rate is greater than or equal to 20% and less than 40%)
activity level (weed control effect) Leptochloa chinensis [3]: 2 (Level 2: growth control rate is greater than or equal to 20% and less than 40%)
activity level (weed control effect) Scirpus juncoides [4]: 1 (Level 1: growth control rate is greater than or equal to 5% and less than 20%)
